Experiments:
Type in all cases: in vivo
A549 lung cancer tumor = test: miRNA marker levels after A549 lung cancer tumor implantation and anti-tumor drug
Method: (§1) Plasma samples (50 uL) were stored at −80° C. after receiving them. The samples were thawed on ice, and total RNA was isolated with the miRCURY RNA Isolation Kit for Biofluids (Exiqon) according to the supplied protocol (1 uL of Exiqon spike-in UniRT RNA mix was added to each sample before RNA isolation). RNA was eluted into 50 uL nuclease-free water, and either processed directly for cDNA synthesis of stored at −80° C. until that time. RNA from each sample was used to create cDNA in 40 uL reaction volume with the Universal cDNA Synthesis Kit II (Exiqon) according to the supplied protocol. RNA concentration for plasma samples is not quantitated; 8 uL each RNA sample is used without adjusting concentration. The 40 uL of cDNA per sample was then used to set-up qPCR directly or stored at −20° C. until use. The 40 uL cDNA was diluted into 4 mL of nuclease-free water, and then mixed with 4 mL 2X ExiLENT SYBR Green master mix (Exiqon) to create 8 mL qPCR mix, according to protocol supplied with miRNome Panels (Exiqon). The 8 ml master mix was then pipetted into the two 384-well plates (Exiqon microRNA Ready-to-Use PCR, Human panel I+II, V3.M), 10 ul per well according to the supplied protocol. The plates were briefly centrifuged, sealed, and run on the ABI Viia7 real time PCR thermocycler, using the PCR template program supplied by Exiqon. Results were exported as text files and then imported into the GenEx software (Exiqon) for analysis. Data pre-processing and analysis steps were performed according to the recommendations of the Exiqon Data Analysis Guide. Briefly, biological replicate were grouped, outliers were automatically detected and removed, Ct values higher than 37 were considered background and removed, missing data was filled by the GenEx software with an imputed value based on group mean. Cts for each sample were normalized to the global mean of all expressed miRNAs with a Ct<34.

[1] = tested on: PC3M prostate cancer tumor; test: miRNA marker levels after PC3M prostate cancer tumor implantation and anti-tumor drug
Method: as §1

[2] = tested on: COLO 205 human colorectal cancer cells; test: Drug efficacy in COLO 205 tumor-bearing mice (tumor burden)
Method: Immune compromised mice were injected with COLO 205 human colorectal cancer cells and tumors were allowed to develop, after which the mice were treated with either irinotecan or vehicle for 14 days. In a second control group, normal mice maintained in parallel but not bearing tumors were treated with either irinotecan or vehicle. […] During the course of drug treatment, blood plasma samples were taken from all mice at regular intervals from 3 to 14 days. RNA was prepared from the plasma samples and analyzed for miRNA content by a panel of quantitative PCR assays for approximately 700 miRNAs. The relative quantities of each miRNA assayed were normalized to the global mean in each sample and then compared between the paired groups: drug versus vehicle treatment in tumor-bearing mice; drug versus vehicle in tumor-free mice; and tumor bearing versus tumor-free mice. […]
We looked for miRNAs whose pattern of detection matched that in the mice treated with drug for 14 days. The pattern of quantification for these miRNAs—higher or lower in the drug treated mice compared to the vehicle treated controls—matched miRNAs from the 14 day time point. […] These 14 miRNAs form a signature of plasma miRNA content that correlates with drug efficacy late in the course of drug treatment and predicts efficacy early in the drug treatment regimen before any effects of irinotecan on tumor burden could be detected.

COLO 205 tumor = test: Plasma miRNA profiling by qPCR panel in COLO 205 tumor-bearing mice, drug versus vehicle; conditions: for miRNAs different upon drug treatment: Higher: plasma, relative to a vehicle-treated control, 3 days, matching 14 day pattern
Method: as §1
Immune compromised mice were injected with COLO 205 human colorectal cancer cells and tumors were allowed to develop, after which the mice were treated with either irinotecan or vehicle for 14 days. In a second control group, normal mice maintained in parallel but not bearing tumors were treated with either irinotecan or vehicle. […] During the course of drug treatment, blood plasma samples were taken from all mice at regular intervals from 3 to 14 days. RNA was prepared from the plasma samples and analyzed for miRNA content by a panel of quantitative PCR assays for approximately 700 miRNAs. The relative quantities of each miRNA assayed were normalized to the global mean in each sample and then compared between the paired groups: drug versus vehicle treatment in tumor-bearing mice; drug versus vehicle in tumor-free mice; and tumor bearing versus tumor-free mice. Samples were taken from six replicate mice for each time point in each of the categories.
To eliminate those miRNA differences that were the result of drug treatment alone, we examined the miRNA profiles in the irinotecan treated normal, tumor-free mice compared with the same type of mice treated with vehicle.
We looked for miRNAs whose pattern of detection matched that in the mice treated with drug for 14 days. The pattern of quantification for these miRNAs—higher or lower in the drug treated mice compared to the vehicle treated controls—matched miRNAs from the 14 day time point. We found three miRNAs, miR-30d-3p, miR-483-5p, and miR-708-3p, that were elevated in the drug treated tumor bearing mice compared with the vehicle controls and 11 miRNAs, miR-21-3p, miR-101-5p, miR-122-3p, miR-197-3p, miR-429, miR-501-3p, miR-509-3p, miR-598, miR-206, miR-885-5p, and miR-1972, that were lower in the drug treated mice compared with the controls. These 14 miRNAs form a signature of plasma miRNA content that correlates with drug efficacy late in the course of drug treatment and predicts efficacy early in the drug treatment regimen before any effects of irinotecan on tumor burden could be detected. […]

[3] = three days following administration
[4] = three days, matched 14 day time point

N.N.[Cl][Pt][Cl] [Cisplatin]
particular miRNA marker levels upon administration to lung tumors (FIG. 2) (A549 lung cancer tumor; lung tumors (A549)): decrease | level of certain miRNA markers that decrease upon tumor implantation (FIG. 3) (A549 lung cancer tumor; [3]): increase | level of certain miRNA markers that increase upon tumor implantation (FIG. 1) (A549 lung cancer tumor; [3]): decrease | level of miR-16-5p, miR-1208, miR-24-3p and miR-588 (FIG. 4) (A549 lung cancer tumor; [3]): increase

CC(=O)O[C@@]12CO[C@@H]1C[C@H](O)[C@@]1(C)C(=O)[C@H](O)C3=C(C)[C@@H](OC(=O)[C@H](O)[C@@H](NC(=O)OC(C)(C)C)c4ccccc4)C[C@@](O)([C@@H](OC(=O)c4ccccc4)[C@H]21)C3(C)C [Docetaxel]
level of certain miRNA markers that decrease upon tumor implantation (FIG. 7) ([1]; following administration): increase | level of certain miRNA markers that increase upon tumor implantation (FIG. 5) ([1]; following administration): decrease | level of miR-190, miR-153 and miR-92a-1 (FIG. 6) ([1]; following administration): decrease | level of miR-634 and miR-647 (FIG. 8) ([1]; following administration): increase | particular miRNA marker levels upon administration to prostate tumors (FIG. 2) ([1]; prostate tumors (PC3M)): decrease

CCc1c2c(nc3ccc(OC(=O)N4CCC(N5CCCCC5)CC4)cc13)-c1cc3c(c(=O)n1C2)COC(=O)[C@]3(O)CC [irinotecan]
tumor burden in drug treated mice versus vehicle treated control group ([2]; after 14 days of drug treatment): significantly lower tumor burden | difference in tumor burden, drug versus vehicle ([2]; treated for only three days): no significant difference in tumor burden | detection of the 11 miRNAs in plasma of drug treated mice (COLO 205 tumor; detectable in the vehicle treated mice): undetectable | miRNAs different upon drug treatment: Higher (COLO 205 tumor; miR-483-5p): miR-483-5p | miRNAs different upon drug treatment: Higher (COLO 205 tumor; miR-708-3p): miR-708-3p | miRNAs different upon drug treatment: Higher (COLO 205 tumor; miR-30d-3p): miR-30d-3p | plasma miR-21-3p, miR-101-5p, miR-122-3p, miR-197-3p, miR-429, miR-501-3p, miR-509-3p, miR-598, miR-206, miR-885-5p and miR-1972 in drug treated mice compared with controls (COLO 205 tumor; [4]): lower | plasma miR-30d-3p, miR-483-5p and miR-708-3p in drug treated tumor bearing mice compared with vehicle controls (COLO 205 tumor; [4]): elevated | detection of miR-30d-3p and miR-708-3p in plasma of treated tumor-bearing mice (COLO 205 tumor; tumor-bearing mice): went from undetected to detected | plasma miR-483-5p in treated tumor-bearing mice (COLO 205 tumor; tumor-bearing mice): increased

— patent publication US20180291468A1, “MARKERS OF TUMOR CELL RESPONSE TO ANTI-CANCER THERAPY” (REGENERON PHARMACEUTICALS, INC., priority 2013, published 2018)
